Test results as given in ChEMBL document CHEMBL4014283, “Structural insights of SmKDAC8 inhibitors: Targeting Schistosoma epigenetics through a combined structure-based 3D QSAR, in vitro and synthesis strategy” (Bioorg Med Chem, 2017).

Biological target: T1, Histone deacetylase 8 (Schistosoma mansoni) (UniProt A5H660)
T1 sequence (whole entry): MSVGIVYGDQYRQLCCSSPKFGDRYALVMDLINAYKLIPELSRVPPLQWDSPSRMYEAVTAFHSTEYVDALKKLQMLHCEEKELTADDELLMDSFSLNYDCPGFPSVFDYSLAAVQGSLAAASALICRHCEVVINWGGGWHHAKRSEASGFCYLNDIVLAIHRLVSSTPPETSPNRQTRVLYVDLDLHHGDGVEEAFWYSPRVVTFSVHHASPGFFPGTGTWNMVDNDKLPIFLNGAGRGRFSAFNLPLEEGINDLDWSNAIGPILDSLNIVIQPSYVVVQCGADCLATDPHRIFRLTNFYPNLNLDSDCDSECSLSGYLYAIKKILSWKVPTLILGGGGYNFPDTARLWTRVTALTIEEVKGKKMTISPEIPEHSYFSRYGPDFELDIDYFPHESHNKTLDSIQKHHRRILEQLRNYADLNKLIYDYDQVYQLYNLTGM
Assay: Inhibition of Schistosoma mansoni KDAC8 at 30 uM using (FAM)-labeled peptide as substrate after 60 mins by microfluidic assay

Compound	inhibition [%]
CC(C)[C@@H]1NC(=O)[C@@H]2CCCN2C(=O)[C@H]2CCCN2C(=O)C[C@@H](C(=O)NCCCO)NC1=O	0
CC(C)[C@@H]1NC(=O)[C@@H]2CCCN2C(=O)[C@H]2CCCN2C(=O)C[C@@H](C(=O)NCCCN)NC1=O	0
CC(C)[C@@H]1NC(=O)[C@@H]2CCCN2C(=O)[C@H]2CCCN2C(=O)C[C@@H](C(=O)OCc2ccccc2)NC1=O	0
CC(C)[C@@H]1NC(=O)[C@H]2CCCN2C(=O)[C@@H]2CCCN2C(=O)C[C@@H](C(=O)O)NC1=O	0
CC(C)[C@@H]1NC(=O)[C@@H]2CCCN2C(=O)[C@H]2CCCN2C(=O)C[C@H](C(=O)OCc2ccccc2)NC1=O	0
CC(C)[C@@H]1NC(=O)[C@H]2CCCN2C(=O)[C@@H]2CCCN2C(=O)C[C@@H](C(=O)NCCC[S+](C)[O-])NC1=O (some centres undefined)	0
CC(C)[C@@H]1NC(=O)[C@H]2CCCN2C(=O)[C@@H]2CCCN2C(=O)C[C@H](C(=O)NCCCSSCCCNC(=O)[C@H]2CC(=O)N3CCC[C@H]3C(=O)N3CCC[C@@H]3C(=O)N[C@@H](C(C)C)C(=O)N2)NC1=O	3.36
CC(C)[C@@H]1NC(=O)[C@@H]2CCCN2C(=O)[C@H]2CCCN2C(=O)C[C@@H](C(=O)NCCS)NC1=O	0
COC(=O)CCCNC(=O)[C@H]1CC(=O)N2CCC[C@@H]2C(=O)N2CCC[C@H]2C(=O)N[C@@H](C(C)C)C(=O)N1	0
CC(C)[C@@H]1NC(=O)[C@@H]2CCCN2C(=O)[C@H]2CCCN2C(=O)C[C@H](C(=O)NCCCS)NC1=O	14.6
CC(C)[C@@H]1NC(=O)[C@@H]2CCCN2C(=O)[C@H]2CCCN2C(=O)C[C@H](C(=O)NCCCN)NC1=O	0
CC(C)[C@@H]1NC(=O)[C@H]2CCCN2C(=O)[C@@H]2CCCN2C(=O)C[C@H](C(=O)NCCSSCCNC(=O)[C@H]2CC(=O)N3CCC[C@H]3C(=O)N3CCC[C@@H]3C(=O)N[C@@H](C(C)C)C(=O)N2)NC1=O	0
CC(C)[C@@H]1NC(=O)[C@@H]2CCCN2C(=O)[C@H]2CCCN2C(=O)C[C@@H](C(=O)NCCCS(C)(=O)=O)NC1=O	0
CSCCCNC(=O)[C@H]1CC(=O)N2CCC[C@@H]2C(=O)N2CCC[C@H]2C(=O)N[C@@H](C(C)C)C(=O)N1	0
CC(C)[C@@H]1NC(=O)[C@@H]2CCCN2C(=O)[C@H]2CCCN2C(=O)C[C@H](C(=O)NCCS)NC1=O	8.3
CC(C)[C@@H]1NC(=O)[C@@H]2CCCN2C(=O)[C@H]2CCCN2C(=O)C[C@H](C(=O)NCCCC(=O)NO)NC1=O	25.8
CC(C)[C@@H]1NC(=O)[C@H]2CCCN2C(=O)[C@@H]2CCCN2C(=O)C[C@@H](C(=O)NCCCSSCCCNC(=O)[C@@H]2CC(=O)N3CCC[C@H]3C(=O)N3CCC[C@@H]3C(=O)N[C@@H](C(C)C)C(=O)N2)NC1=O	0
CC(C)[C@@H]1NC(=O)[C@@H]2CCCN2C(=O)[C@H]2CCCN2C(=O)C[C@@H](C(=O)O)NC1=O	0
CC(C)[C@@H]1NC(=O)[C@H]2CCCN2C(=O)[C@@H]2CCCN2C(=O)C[C@H](C(=O)O)NC1=O	0
CC(C)[C@@H]1NC(=O)[C@@H]2CCCN2C(=O)[C@H]2CCCN2C(=O)C[C@@H](C(=O)NCCC[S+](C)[O-])NC1=O (some centres undefined)	0

Compound	inhibition [%]
CC(C)[C@@H]1NC(=O)[C@@H]2CCCN2C(=O)[C@H]2CCCN2C(=O)C[C@H](C(=O)NCCCS(C)(=O)=O)NC1=O	0
COC(=O)CCCNC(=O)[C@@H]1CC(=O)N2CCC[C@@H]2C(=O)N2CCC[C@H]2C(=O)N[C@@H](C(C)C)C(=O)N1	0
CC(C)[C@@H]1NC(=O)[C@@H]2CCCN2C(=O)[C@H]2CCCN2C(=O)C[C@H](C(=O)NCCC[S+](C)[O-])NC1=O (some centres undefined)	0
CC(C)[C@@H]1NC(=O)[C@@H]2CCCN2C(=O)[C@H]2CCCN2C(=O)C[C@@H](C(=O)NCCSSCCNC(=O)[C@@H]2CC(=O)N3CCC[C@@H]3C(=O)N3CCC[C@H]3C(=O)N[C@@H](C(C)C)C(=O)N2)NC1=O	0
CC(C)[C@@H]1NC(=O)[C@H]2CCCN2C(=O)[C@@H]2CCCN2C(=O)C[C@@H](C(=O)NCCCC(=O)O)NC1=O	0
CSCCCNC(=O)[C@@H]1CC(=O)N2CCC[C@@H]2C(=O)N2CCC[C@H]2C(=O)N[C@@H](C(C)C)C(=O)N1	0
CC(C)[C@@H]1NC(=O)[C@@H]2CCCN2C(=O)[C@H]2CCCN2C(=O)C[C@H](C(=O)NCCCC(=O)O)NC1=O	0
CC(C)[C@@H]1NC(=O)[C@@H]2CCCN2C(=O)[C@H]2CCCN2C(=O)C[C@@H](C(=O)NCCSSCCNP(=O)(Oc2ccccc2)Oc2ccccc2)NC1=O	0
CSCCCNC(=O)[C@@H]1CC(=O)N2CCC[C@H]2C(=O)N2CCC[C@@H]2C(=O)N[C@@H](C(C)C)C(=O)N1	0
CC(C)[C@@H]1NC(=O)[C@@H]2CCCN2C(=O)[C@H]2CCCN2C(=O)C[C@@H](C(=O)NCCCSSCCCNC(=O)[C@@H]2CC(=O)N3CCC[C@@H]3C(=O)N3CCC[C@H]3C(=O)N[C@@H](C(C)C)C(=O)N2)NC1=O	0
CSCCCNC(=O)[C@H]1CC(=O)N2CCC[C@H]2C(=O)N2CCC[C@@H]2C(=O)N[C@@H](C(C)C)C(=O)N1	0
CC(C)[C@@H]1NC(=O)[C@H]2CCCN2C(=O)[C@@H]2CCCN2C(=O)C[C@H](C(=O)NCCC[S+](C)[O-])NC1=O (some centres undefined)	0
CC(C)[C@@H]1NC(=O)[C@H]2CCCN2C(=O)[C@@H]2CCCN2C(=O)C[C@H](C(=O)NCCS)NC1=O	0
CC(C)[C@@H]1NC(=O)[C@H]2CCCN2C(=O)[C@@H]2CCCN2C(=O)C[C@@H](C(=O)NCCCS(C)(=O)=O)NC1=O	0
CC(C)[C@@H]1NC(=O)[C@@H]2CCCN2C(=O)[C@H]2CCCN2C(=O)C[C@H](C(=O)NCCCSSCCCNC(=O)[C@H]2CC(=O)N3CCC[C@@H]3C(=O)N3CCC[C@H]3C(=O)N[C@@H](C(C)C)C(=O)N2)NC1=O	0
CC(C)[C@@H]1NC(=O)[C@@H]2CCCN2C(=O)[C@H]2CCCN2C(=O)C[C@@H](C(=O)NCCCC(=O)O)NC1=O	0
CC(C)[C@@H]1NC(=O)[C@H]2CCCN2C(=O)[C@@H]2CCCN2C(=O)C[C@@H](C(=O)NCCS)NC1=O	0
CC(C)[C@@H]1NC(=O)[C@H]2CCCN2C(=O)[C@@H]2CCCN2C(=O)C[C@@H](C(=O)NCCCS)NC1=O	1.45
COC(=O)CCCNC(=O)[C@@H]1CC(=O)N2CCC[C@H]2C(=O)N2CCC[C@@H]2C(=O)N[C@@H](C(C)C)C(=O)N1	0
CC(C)[C@@H]1NC(=O)[C@@H]2CCCN2C(=O)[C@H]2CCCN2C(=O)C[C@@H](C(=O)NCCSSCCN)NC1=O	0

Compound	inhibition [%]
CC(C)[C@@H]1NC(=O)[C@H]2CCCN2C(=O)[C@@H]2CCCN2C(=O)C[C@H](C(=O)NCCCC(=O)O)NC1=O	0
CC(C)[C@@H]1NC(=O)[C@@H]2CCCN2C(=O)[C@H]2CCCN2C(=O)C[C@H](C(=O)NCCCO)NC1=O	0
CC(C)[C@@H]1NC(=O)[C@@H]2CCCN2C(=O)[C@H]2CCCN2C(=O)C[C@H](C(=O)NCCSSCCNP(=O)(Oc2ccccc2)Oc2ccccc2)NC1=O	3
CC(C)[C@@H]1NC(=O)[C@H]2CCCN2C(=O)[C@@H]2CCCN2C(=O)C[C@H](C(=O)NCCCSCCN)NC1=O	0
CC(C)[C@@H]1NC(=O)[C@H]2CCCN2C(=O)[C@@H]2CCCN2C(=O)C[C@H](C(=O)NCCCS)NC1=O	3.18
CC(C)[C@@H]1NC(=O)[C@@H]2CCCN2C(=O)[C@H]2CCCN2C(=O)C[C@@H](C(=O)NCCCC(=O)NO)NC1=O	21.2
CC(C)[C@@H]1NC(=O)[C@@H]2CCCN2C(=O)[C@H]2CCCN2C(=O)C[C@@H](C(=O)NCCCS)NC1=O	0.84
CC(C)[C@@H]1NC(=O)[C@H]2CCCN2C(=O)[C@@H]2CCCN2C(=O)C[C@H](C(=O)Cc2ccccc2)NC1=O	0
CC(C)[C@@H]1NC(=O)[C@H]2CCCN2C(=O)[C@@H]2CCCN2C(=O)C[C@@H](C(=O)OCc2ccccc2)NC1=O	0
CC(C)[C@@H]1NC(=O)[C@H]2CCCN2C(=O)[C@@H]2CCCN2C(=O)C[C@H](C(=O)NCCCS(C)(=O)=O)NC1=O	0
CC(C)[C@@H]1NC(=O)[C@@H]2CCCN2C(=O)[C@H]2CCCN2C(=O)C[C@H](C(=O)NCCSSCCNC(=O)[C@H]2CC(=O)N3CCC[C@@H]3C(=O)N3CCC[C@H]3C(=O)N[C@@H](C(C)C)C(=O)N2)NC1=O	0
CC(C)[C@@H]1NC(=O)[C@@H]2CCCN2C(=O)[C@H]2CCCN2C(=O)C[C@H](C(=O)NCCSSCCN)NC1=O	0
CC(C)[C@@H]1NC(=O)[C@H]2CCCN2C(=O)[C@@H]2CCCN2C(=O)C[C@@H](C(=O)NCCCSCCN)NC1=O	0
CC(C)[C@@H]1NC(=O)[C@@H]2CCCN2C(=O)[C@H]2CCCN2C(=O)C[C@H](C(=O)O)NC1=O	0
O=C(O)CCCCN1C(=O)[C@H](CCC(=O)NC(c2ccccc2)(c2ccccc2)c2ccccc2)N=C(c2ccccc2)c2ccccc21	0
CC(C)[C@@H]1NC(=O)[C@H]2CCCN2C(=O)[C@@H]2CCCN2C(=O)C[C@@H](C(=O)NCCCO)NC1=O	0
COC(=O)CCCNC(=O)[C@H]1CC(=O)N2CCC[C@H]2C(=O)N2CCC[C@@H]2C(=O)N[C@@H](C(C)C)C(=O)N1	1.47
CC(C)[C@@H]1NC(=O)[C@H]2CCCN2C(=O)[C@@H]2CCCN2C(=O)C[C@H](C(=O)NCCCO)NC1=O	0
CC(C)[C@@H]1NC(=O)[C@H]2CCCN2C(=O)[C@@H]2CCCN2C(=O)C[C@@H](C(=O)NCCSSCCNC(=O)[C@@H]2CC(=O)N3CCC[C@H]3C(=O)N3CCC[C@@H]3C(=O)N[C@@H](C(C)C)C(=O)N2)NC1=O	0
